We go through two substances from patent US7501281B2, “Compositions, methods and kits related to thrombin, Notch signaling and stamatogenesis and growth of stem cells” (Maine Medical Center Research Institute, priority 2003, dated 2009).

Test [1] deals with PAR1 null cells adenovirally-transduced with the FGF1R136K mutant. The test is described as follows: Immunoblot analysis of FGF1 release in PAR1 null cells. Type of test: cell-based, mouse. The note with it: 10 μg/ml α-thrombin.
Another test deals with NSC populations. The test can be described thus: Clonal expansion of NSC on NIH 3T3 transfectant feeder layer. Type of test: cell-based.
In test [2] the test system is Swiss 3T3 cells expressing a dominant-negative FGFR1 mutant. The test is described as follows: DNA synthesis assay, (3H)-thymidine autoradiography. Type of test: cell-based, murine. The note with it: 10 μg/ml α-thrombin. The procedure:
A combination of (^3H)-thymidine autoradiography and immunohistochemistry was used to evaluate the levels of DNA synthesis in Swiss 3T3 cells expressing a dominant-negative FGFR1 mutant. Swiss 3T3 cells were plated at 50% confluency on glass coverslips precoated with fibronectin (10 μg/cm^2) for 24 hours. The cells were transfected with the pCS2 vector expressing a dominant-negative X. laevis FGFR1 deletion mutant lacking the FGFR1 intracellular domain (a gift from Dr. R. Friesel) using the Fugene 6 reagent (Roche). After 24 hours, the medium was changed to DMEM containing 0.25% BCS and following a 48 hour incubation in low BCS, the cells were stimulated with either 10 μg/ml of α-thrombin, 10% BCS or 10 ng/ml of recombinant FGF1 plus 10 units/ml of heparin. After stimulation for 24 hours, (^3H)-thymidine (NEN; 1 μCi/ml) was added to the medium and cells were incubated for 12 hours and fixed with 4% neutral formaldehyde. […] The percentage of (^3H)-labeled nuclei among the dnFGFR1-positive and dnFGFR1-negative cells was quantitated using an inverted Olympus microscope.
Thus, a dominant-negative (dn) FGFR1 construct was expressed in Swiss 3T3 cells and their proliferative index measured in the presence and absence of exogenous thrombin.

The subject of test [3] is FGF1R136K NIH 3T3 cell transfectants. The test can be described thus: Thrombin stimulation and immunoblot analysis of FGF1 release. Type of test: cell-based, murine. As to the method: FGF1R136K NIH 3T3 cell transfectants or adenovirally-transduced NIH 3T3 cells were washed with DMEM containing 5 units/ml of heparin (Sigma) and stimulated with either 10 μg/ml α-thrombin (a gift from Dr. J. Fenton) or 5 μM TRAP (Sigma) at 37° C. for different periods of time. Control cells were incubated in the absence of thrombin for the same time period. Conditioned media were collected at each time period, filtered, and concentrated as previously described (Jackson et al., 1992, Proc. Natl. Acad. Sci. U.S.A. 89:10691-10695). The concentrates were resolved by SDS-PAGE and subjected to immunoblot analysis using a rabbit antibody against either FGF1 (Jackson et al., 1992), Syt1 (LaVallee et al.,1998, J. Biol. Chem. 273:22217-22223) or Myc (Oncogene). The heat shock-induced release of FGF1 was performed at 42° C. for 110 minutes as previously described (Jackson et al., 1992). Cell viability was assessed by measuring lactate dehydrogenase activity in the conditioned medium after filtration as disclosed previously elsewhere herein (published as Mandinova et al., 2003, J. Cell Sci. 116:2687-2696), and total cell lysates were obtained and processed for immunoblot analysis as described (Landriscina et al., 2001, J. Biol. Chem. 276:22544-22552).
Stable FGF1R136K NIH 3T3 cell transfectants were pre-incubated with either 100 ng/ml pertussis toxin (PTX) or 10 ng/ml cholera toxin (CT) for 60 minutes at 37° C. in DMEM containing 10% BCS. After pre-incubation, the cells were washed, stimulated with 10 μg/ml of thrombin for different periods of time in the presence of either 100 ng/ml PTX or 10 ng/ml CT, conditioned medium collected, and subjected to immunoblot analysis as described above.
Since FGF1 is known to be susceptible to thrombin cleavage at residue 136 (Erzurum et al., 2003, J. Vasc. Surg. 37:1075-1081), a thrombin-resistant FGF1 mutant (FGF1R136K; described in International Patent Publication No. WO03/052378, which is incorporated by reference in its entirety herein) was used and stable FGF1R136K NIH 3T3 cell transfectants were produced.

In the next test the test system is primary NCSC populations. The test is described as follows: Clonogenic differentiation of primary NCSC, dosage sensitivity to Notch ligands. It counts as cell-based, rat. The note with it: two week differentiation assay. The procedure:
FIG. 12A depicts an RT-PCR analysis of FGF1.A mRNA expression. Briefly, populations of murine NCSC were treated for 48 hours in Morrison media supplemented with either 7.5 nM sJ1, 5.0 nM sDl1, 10 μg/ml of α-thrombin or 5 μg/ml TRAP, and the steady-state levels of the FGF1.A mRNA were measured using RT-PCR as described elsewhere herein. […] Clonogenic differentiation assays of murine NCSC populations were assessed by maintaining the cells in Morrison media supplemented with increasing concentrations of either sJ1 or sDl1. The results are presented as the number of colonies at day 14 (mean±standard deviation for at least three experiments) originating from three independent cell isolations as function of concentration of sJ1 and sDl1 using two assays of ligand sensitivity: the percentage of glial-only clones (▪-▪; ▴-▴) and the percentage of neuron-containing clones (♦-♦; ▾-▾) produced after 14 days of ligand exposure. Legend: (▴-▴)sJ1/Glial, (▾-▾) sDl1/Glial (♦-♦) sJ1/Neural and (▾-▾) sJDl1/Neural. […] Clonogenic differentiation assays of NCSC populations was assessed by maintaining the cells in Morrison media supplemented with either 7.5 nM sJ1 (▪-▪) or 5 nM sDl1 (▴-▴). The onset of gliogenic differentiation was determined by GFAP immunohistochemistry. Results are presented as the percentage of GFAP-positive clones (mean±standard deviation of three experiments). […]

Thrombin: the “export of the FGF1R136K mutant” value in test [1] is reported as “unable to induce the export”. The “effect on size of NSC colonies” value in the test with NSC populations (full-length Delta1 NIH 3T3 cell transfectant feeder layer) is “failed to induce”; with NSC populations (full-length Jagged1 NIH 3T3 cell transfectant feeder layer, 5 μg/ml thrombin), “exaggeration of the size of the NSC colonies”. In addition, the “DNA synthesis frequency with dnFGFR1 expression” value in test [2] was “level consistent with a quiescent cellular phenotype”. In test [3], the “export of FGF2” value is given as “unable to induce”. Also, the “concentration giving maximal response of FGF1R136K release” value in test [3] (37° C.) amounted to 10 µg/mL. The “export of S100A13” value in test [3] (37° C., cells co-expressing S100A13 and FGF1R136K) is given as “presence of S100A13 in the extracellular compartment”. In addition, in test [3] (37° C., 10 μg/ml α-thrombin or 5 μM TRAP), the “release of the FGF1R136K mutant into the extracellular compartment” value is “rapid and sustained appearance”. In addition, in test [3] (FGF-1-NIH 3T3 transfectants), the “time to maximum levels of FGF-1 release after contact” value was “one”. In addition, in test [3] (cells adenovirally transduced with caN1), the “release of the FGF1R136K mutant from cells with elevated Notch1 signaling” value is listed as “unable to initiate the release”. Also, in test [3] (p40 Syt1 adenovirally transduced), the “export of p40 Syt1” value was “presence of p40 Syt1 in the extracellular compartment”.
In the case of “sJ1: Soluble Jagged1, amino acid residues from about 1 to 1067 (SEQ ID NO:3) of full-length Jagged1”, the “gliogenic differentiation of the NCSC population” value in the test with primary NCSC populations is “capable of inducing gliogenic differentiation”.
